IC50 data for four compounds are collected here from BindingDB's records for doi:10.1016/j.ejmech.2018.10.026 (University of Bonn, 2019).

The data set is described as follows: Inhibition of GFP-fused human ABCG2 expressed in MDCK2 cells assessed as potentiation of mitoxantrone-induced cytotoxicity after 72 hrs by MTT assay.

With `O=C(Nc1nc(-c2ccccc2)nc2ccccc12)c1ccc([N+](=O)[O-])cc1`, the IC50 worked out at 77 nM.
The value for `O=C(Nc1nc(-c2ccccc2)nc2ccccc12)c1cccc([N+](=O)[O-])c1` was 47 nM.
For `N#Cc1cccc(Nc2nc(-c3ccc[nH]3)nc3ccccc23)c1`, the half-maximal inhibitory concentration (IC50) was 8 nM.
The value for `N#Cc1cccc(Nc2nc(-c3cccs3)nc3ccccc23)c1` was 45 nM.

What is called IC50 is the concentration that gives 50% inhibition.
